Experiments:
c-myc = assay: Inhibition of c-myc expression in MV4-11 cells (mRNA, real-time PCR); type: cell-based; parameters: key: Active: Compounds with an IC50 value less than 30 μM were deemed to be active.; Not Active: Compounds with an IC50 value less than 30 μM were deemed to be active; settings: Human AML MV4-11 cells, 3 h incubation
Summary of the method: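 Duplex RT-qPCR of c-myc against cyclophilin cDNA gave IC50 from a dose–response curve. Input was isolated mRNA from 2.5×10^4 MV4-11 cells after 3 h exposure at 37 °C to compound or 0.1% DMSO vehicle.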

[1] = biological target: T1, Brd4 bromodomain 1 (BRD4(1)) (Homo sapiens, UniProt O60885); assay: Inhibition of tetra-acetylated histone H4 binding to Brd4 bromodomain 1 (TR-FRET); parameters: key: Active: Compounds with an IC50 value less than 30 μM were deemed to be active.; Not Active: Compounds with an IC50 value less than 30 μM were deemed to be active; settings: tetra-acetylated histone H4 peptide, active = IC50 <30 μM
T1 construct: Illustrative results with the first bromodomain of Brd4; made in house; host or cells: E. coli BL21 (DE3)
Summary of the method: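 IC50 values come from dose-response curves of the 665 nm to 620 nm TR-FRET signal decrease, measured after 2 h at room temperature. Reactions contained 200 nM E. coli-expressed His-tagged bromodomain, 25-50 nM biotinylated tetra-acetylated H4 peptide, Eu-streptavidin plus XL665 anti-His antibody, with 30 mM HEPES pH 7.4, 320 mM KF and 0.2% DMSO.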

hIL-6 mRNA = assay: Inhibition of hIL-6 mRNA transcription in U937 cells; type: cell-based, human; parameters: key: Active: Compounds with an IC50 value less than 30 μM were deemed to be active.; Not Active: Compounds with an IC50 value less than 30 μM were deemed to be active; settings: LPS stimulation, active = IC50 <30 μM
Summary of the method: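 Readout is one-step real-time PCR of hIL-6 mRNA, normalized to an internal control and given as fold induction versus control. Cells: PMA (60 ng/mL, 3 days)-differentiated U937 macrophages, compound added 1 h before 1 ug/mL LPS, harvested after 3 h at 37° C.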

ApoA-I mRNA = assay: Up-regulation of hApoA-1 mRNA transcription in Huh7 cells; type: cell-based, human; parameters: key: Active: Compounds with an EC170 value less than 30 μM were deemed to be active; settings: 48 h treatment, ApoA-I mRNA by real-time PCR, Active = EC170 less than 30 μM
Summary of the method: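 Huh7 cells treated with compound for 48 h. ApoA-I mRNA was then quantified in captured mRNA by one-step real-time RT-PCR. Fold induction calculated from Ct values relative to the matching DMSO control; EC170 is the concentration for 170% of control expression.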

| Structure (SMILES) | c-myc activity (IC50 <30 μM) (c-myc) | FRET activity (IC50 <30 μM) BRD4(1) [1] | IL-6 activity (IC50 <30 μM) (hIL-6 mRNA) | ApoA-1 activity (EC170 <30 μM) (ApoA-I mRNA) |
| --- | --- | --- | --- | --- |
| Cc1noc(C)c1-c1ccc(=O)n(Cc2ccccc2)c1 [Example 56, 1-Benzyl-5-(3,5-dimethylisoxazol-4-yl)pyridin-2(1H)-one] | Active | Active | Active | Active |
| Cc1noc(C)c1-c1cc(N)c(=O)n(Cc2ccc(Br)cc2)c1 [Example 241, 3-Amino-1-(4-bromobenzyl)-5-(3,5-dimethylisoxazol-4-yl)pyridin-2(1H)-one] | Active | Active | Active | Active |
| Cc1noc(C)c1-c1cc(N)c(=O)n(Cc2ccsc2)c1 [Example 219, 3-amino-5-(3,5-dimethylisoxazol-4-yl)-1-(thiophen-3-ylmethyl)pyridin-2(1H)-one] | Active | Active | Active | Active |
| Cc1noc(C)c1-c1cc(N)c(=O)n(Cc2ccc(F)cc2)c1 [Example 180, 3-amino-5-(3,5-dimethylisoxazol-4-yl)-1-(4-fluorobenzyl)pyridin-2(1H)-one] | Active | Active | Active | Active |

More lines, main results first:

| c-myc activity (IC50 <30 μM) (c-myc) | FRET activity (IC50 <30 μM) BRD4(1) [1] | IL-6 activity (IC50 <30 μM) (hIL-6 mRNA) | Structure (SMILES) | ApoA-1 activity (EC170 <30 μM) (ApoA-I mRNA) |
| --- | --- | --- | --- | --- |
| Active | Active | Active | Cc1noc(C)c1-c1ccc(=O)n([C@H](C)c2ccccc2)c1 [Example 134, (R)-5-(3,5-Dimethylisoxazol-4-yl)-1-(1-phenylethyl)pyridin-2(1H)-one] | Active |
| Active | Active | Active | Cc1noc(C)c1-c1cc(N)c(=O)n(Cc2ccccc2)c1 [Example 73, 3-Amino-1-benzyl-5-(3,5-dimethylisoxazol-4-yl)pyridin-2(1H)-one] | Active |
| Active | Active | Active | Cc1noc(C)c1-c1ccc(=O)n(Cc2ccc(Cl)cc2)c1 [Example 128, 1-(4-Chlorobenzyl)-5-(3,5-dimethylisoxazol-4-yl)pyridin-2(1H)-one] | Active |

Reference: US9271978B2 (Zenith Epigenetics Corp., priority 2012, dated 2016)
